Experimental data published in US7563788B2, “Substituted Imidazo[1,2-a]pyridines as Antibacterial Agents” (Pfizer Inc., priority 2004, dated 2009).
Converted amounts (≈) assume the structure as drawn.

Experiments:
[1] = system: Neisseria gonorrhoeae, GC525 (NG-2888); assay: In-vitro antibacterial activity, microbroth dilution MIC susceptibility testing; format: cell-based; conditions: gonococcal broth, 20-24 hours at 35° C., lowest concentration preventing visible growth
Experimental: The in-vitro antibacterial activity of selected compounds was determined against a stain of Neisseria gonorrhoeae, GC525 (NG-2888), which is described by Rouquette-Loughlin et al, in Journal of Bacteriology, February 2003, p. 1101-1106, at p. 1103. In general, minimum inhibitory concentration (MIC) susceptibility testing followed procedures recommended by the National Committee for Clinical Laboratory Standards (NCCLS^1-2) or followed the descriptions described below:
Neisseria gonorrhoeae strains were grown on Chocolate Agar II plates (BBL—Becton Dickinson Microbiology Systems, Cockeysville, Md.) and incubated at 35° C. in a humidified 5% CO2 incubator (Forma Scientific, Marietta Ohio). For microbroth dilution MIC testing, N. gonorrhoeae were tested in gonococcal broth (GCB):
Bacterial culture identifications were confirmed by standard microbiological methods.^4 N. gonorrhoeae strains were streaked onto appropriate agar plates for visualization of purity and expected colony morphology. Gram stains were also utilized.
Bacterial stock cultures are stored as frozen suspensions at −70° C. N. gonorrhoeae cultures are suspended in inactivated Horse Serum (Colorado Serum Company, Denver, Colo.) containing 7.5% glucose prior to snap freezing in a dry ice/ethanol bath.
Frozen stock cultures were used as the initial source of organisms for performing microbroth dilution MIC testing. Stock cultures were passed on their respective growth medium at least one growth cycle (18-24 hours) prior to their use. Bacterial culture suspensions were prepared directly from Chocolate Agar II plates into 10 mL cation-adjusted Mueller-Hinton Broth (CAMHB, BBL, # BB215069). Before use, cultures were adjusted to an optical density value of […] on a Perkin-Elmer Lambda EZ150 Spectrophotometer (Wellesley, Mass.) set at a wavelength of 600 nm. Random cultures were plated for validation of actual colony counts. The adjusted cultures were diluted 400-fold (0.25 mL inoculum+100 mL GCB) into gonococcal broth producing a starting inoculum of approximately 5×10^5 cfu/mL. These cultures were inoculated into test plates (100 uL/well) using a Biomek® FX workstation (Beckman Coulter Inc., Fullerton, Calif.). The inoculated plates were placed in stacks of no more than 4 and covered with an empty plate. Plates were incubated for 20-24 hours at 35° C. in a humidified CO2 incubator.
Drug stock solutions (2 mg/mL in DMSO) were prepared on the day of testing. Drugs were weight corrected for assay content where necessary.
Microbroth dilution stock plates were prepared in two dilution series, 64-0.06 ug drug/mL and 1-0.001 ug drug/mL. For the high concentration series, 200 uL of stock solution (2 mg/mL) was added to duplicate rows of a 96-well plate. This was used as the first well in the dilution series. Serial two-fold decremental dilutions were made using a BioMek FX robot (Beckman Coulter Inc., Fullerton, Calif.) with 10 of the remaining 11 wells, each of which contained 100 uL of the appropriate solvent/diluent. Row 12 contained solvent/diluent only and served as the control. For tube one of the low concentration series, 200 uL of a 31.25 ug/mL stock was added to duplicate rows of a 96-well plate. Serial two-fold dilutions were made as described above.
Daughter plates were spotted (3.2 uL/well) from the stock plates listed above using the BioMek FX robot and were inoculated with organism (100 uL/well) as described previously.
After incubation, the degree of growth in each well was read visually with the aid of a Test Reading Mirror (Dynatech Lab 220-16, Dynex Technologies, Chantilly, Va.). 96-well test plates are read in a darkened room with a single light shining from above. The MIC is the lowest concentration of drug that prevents macroscopically visible growth under the conditions of the test. Each drug dilution series was tested in duplicate; identical results are not always obtained. If MIC values in duplicate tests differ by 1 well (two-fold), the […] value is reported. […]

SMILES | MIC [1] [µg/mL] | melting point
CCOC(=O)Nc1cn2ccc(-c3cnc(N(C)C)nc3)cc2n1 [Example 2A, [7-(2-Dimethylamino-pyrimidin-5-yl)-imidazo[1,2-a]pyridin-2-yl]-carbamic Acid Ethyl Ester] | > 64 | 270 to 280 °C (dec.)
CCNC(=O)Nc1cn2ccc(-c3cnc(N(C)C)nc3)cc2n1 [Example 2B, 1-[7-(2-Dimethylamino-pyrimidin-5-yl)-imidazo[1,2-a]pyridin-2-yl]-3-ethyl-urea] | 16 (≈ 49.2 µM) | 259 to 263 °C (dec.)
CCOC(=O)Nc1cn2ccc(-c3ccc(OC)nc3)cc2n1 [Example 3A, [7-(6-Methoxy-pyridin-3-yl)-imidazo[1,2-a]pyridin-2-yl]-carbamic Acid Ethyl Ester] | > 64 | 273 to 279 °C (dec.)
CCNC(=O)Nc1cn2ccc(-c3ccc(OC)nc3)cc2n1 [Example 3B, 1-Ethyl-3-[7-(6-methoxy-pyridin-3-yl)-imidazo[1,2-a]pyridin-2-yl]-urea] | 16 (≈ 51.4 µM) | 222 to 225 °C (dec.)
CCNC(=O)Nc1cn2ccc(-c3cnc(OC)nc3)cc2n1 [Example 4, 1-Ethyl-3-[7-(2-methoxy-pyrimidin-5-yl)-imidazo[1,2-a]pyridin-2-yl]-urea] | 12.7 (≈ 40.7 µM) | > 300 °C
CCNC(=O)Nc1cn2ccc(-c3ccn[nH]3)cc2n1 [Example 38, 1-Ethyl-3-[7-(2H-pyrazol-3-yl)-imidazo[1,2-a]pyridin-2-yl]-urea] | 32 (≈ 118 µM) | 292 to 295 °C (dec.)
CCNC(=O)Nc1cn2ccc(-c3csnn3)cc2n1 [Example 39, 1-Ethyl-3-(7-[1,2,3]thiadiazol-4-yl-imidazo[1,2-a]pyridin-2-yl)-urea] | 16 (≈ 55.5 µM) | –
CCNC(=O)Nc1cn2ccc(-c3noc(C(C)C)n3)cc2n1 [Example 40, 1-Ethyl-3-[7-(5-isopropyl-[1,2,4]oxadiazol-3-yl)-imidazo[1,2-a]pyridin-2-yl]-urea] | > 64 | –
CCNC(=O)Nc1cn2ccc(-c3noc(=O)[nH]3)cc2n1 [Example 41, 1-Ethyl-3-[7-(5-oxo-4,5-dihydro-[1,2,4]oxadiazol-3-yl)-imidazo[1,2-a]pyridin-2-yl]-urea] | > 64 | –
CCNC(=O)Nc1cn2ccc(-c3ccnc(N)c3)cc2n1 [Example 42, 1-[7-(2-Amino-pyridin-4-yl)-imidazo[1,2-a]pyridin-2-yl]-3-ethyl-urea] | 64 (≈ 216 µM) | –
CCNC(=O)Nc1cn2ccc(C(=O)N3CCOCC3)cc2n1 [Example 43, 1-Ethyl-3-[7-(morpholine-4-carbonyl)-imidazo[1,2-a]pyridin-2-yl]-urea] | > 64 | –
CCNC(=O)Nc1cn2ccc(-c3ccnc(OC)c3)cc2n1 [Example 44, 1-Ethyl-3-[7-(2-methoxy-pyridin-4-yl)-imidazo[1,2-a]pyridin-2-yl]-urea] | 16 (≈ 51.4 µM) | –
CCNC(=O)Nc1cn2c(-c3nc(C)no3)cc(-c3cccnc3)cc2n1 [Example 45, 1-Ethyl-3-[5-(3-methyl-[1,2,4]oxadiazol-5-yl)-7-pyridin-3-yl-imidazo[1,2-a]pyridin-2-yl]-urea] | 0.25 (≈ 0.688 µM) | –
CCNC(=O)Nc1cn2ccc(-c3ccc(F)nc3)cc2n1 [Example 46, 1-Ethyl-3-[7-(6-fluoro-pyridin-3-yl)-imidazo[1,2-a]pyridin-2-yl]-urea] | 16 (≈ 53.5 µM) | –
CCNC(=O)Nc1cn2c(C(=O)NCC)cc(-c3cnc(N(C)C)nc3)cc2n1 [Example 50, 7-(2-Dimethylamino-pyrimidin-5-yl)-2-(3-ethyl-ureido)-imidazo[1,2-a]pyridine-5-carboxylic Acid Ethylamide] | 2 (≈ 5.04 µM) | –
CCNC(=O)Nc1cn2c(-c3ncccn3)cc(-c3cnc(N(C)C)nc3)cc2n1 [Example 51, 1-[7-(2-Dimethylamino-pyrimidin-5-yl)-5-pyrimidin-2-yl-imidazo[1,2-a]pyridin-2-yl]-3-ethyl-urea] | 0.13 (≈ 0.322 µM) | –
